According to US5753458A, “Acylation method for penicillins and cephalosporins” (Gist-Brocades B.V., priority 1994, dated 1998):
Structures can show the parent of a compound that is named as a salt.

Experiments:
[1] = target: T1, immobilized penicillin G acylase from E. coli (Escherichia coli, UniProt P06875); test: Enzymatic amoxicillin synthesis with immobilized Pen G acylase, Phyl concentration varied (Example 2); assay type: biochemical; conditions: [Phox] 2.6 μM, enzyme 8.6 U/ml
Description: (§1) V0 (Amox) is the initial velocity of Amox formation, and V0 (D-HPG) is the initial velocity of D-HPG formation, specified as μmoles/min/g enzyme, μmoles/min/ml reaction mixture, or nmoles/min/U (enzyme activity).
(§2) The ratio X is defined as the number of moles of D-HPGA consumed per mole of Amox produced. For practical use this can be transformed to X=1+moles D-HPG/moles Amox, wherein "moles D-HPG" is the molar amount of D-HPG produced by hydrolysis of the acylating agent and the desired product and "moles Amox" is the molar amount of Amox present in the reaction mixture. Thus, if X is 1 this means that only the desired synthesis takes place, no hydrolysis. If X is 2, this means that D-HPG and Amox are formed in equal amounts (on a molar basis). If X is 3, this means that twice as much D-HPG as Amox is present in the reaction mixture (on a molar basis). The ratio X can be calculated at any time during reaction, but in the following examples X is calculated at the reaction stop time, which is defined as the time at which 90 % of the theoretical yield of Amox is present in the reaction mixture (based on the inserted amount of 6-APA). Square brackets are used to designate molar concentrations.
(§3) In Examples 1-8 the following standard conditions for enzymatic amoxicillin synthesis have been used (see patent application No. WO 92/01061 for further details):
(§4) During the reactions, the pH value of the reaction mixtures was kept constant by titration with 2M sulphuric acid.
(§5) Representative samples of the reaction mixtures including solid constituents were taken at regular intervals during the reactions and analyzed by HPLC.
A standard synthesis (immobilized penicillin G acylase from E. coli; enzyme dosing 8.6 U/ml) was carried out with no Phyl added.
Same conditions as in Experiment A were employed, except that Phyl was added to the reaction mixture at the beginning of the experiment in amounts so that the concentrations specified in Table 2 were obtained.

[2] = target: T1, immobilized penicillin G acylase from E. coli; test: Enzymatic amoxicillin synthesis with immobilized Pen G acylase and various enzyme modulators (Example 8); assay type: biochemical; conditions: standard synthesis conditions; enzyme 13 U/ml
Description: as §2, §3, §4, §5
The compounds listed below improve synthesis performance (standard synthesis conditions, immobilized penicillin G acylase from E. coli; enzyme dosing 13 U/ml) in the sense that when they are present in the reaction mixture in a concentration within the interval specified, synthesis of the desired β-lactam antibiotic is favoured as compared to hydrolysis of the acylating agent: […]

[3] = Solubility of acylating agent in aqueous system; assay type: physicochemical; conditions: aqueous system as used in the examples; dependent on salts, pH, temperature
Description: The solubility of the acylating agent such as the D-phenylglycine or D-p-hydroxyphenylglycine derivative or originating from the D,L mixtures as described in EP-A-339751, will vary with the identity of the derivative and with the composition of the reaction medium. […] However, the solubility is very dependent on the salt components in the solution, as well as on the pH value and the temperature of the solution. In some embodiments of the process of this invention, the initial reaction mixture is a slurry containing undissolved acylating agent and/or amino β-lactam, which will dissolve partly or fully during the course of the reaction. The β-lactam antibiotic formed may precipitate during the reaction and, also, the hydrolysis products of the acylating agent such as D-phenylglycine and D-p-hydroxyphenylglycine, may precipitate.

[4] = target: T2, Boehringer Mannheim immobilized penicillin G acylase, experimental preparation (Escherichia coli, UniProt P06875); test: Enzymatic amoxicillin synthesis with immobilized Pen G acylase, 2-thiopheneacetic acid varied (Example 7); assay type: biochemical; conditions: enzyme 12 U/ml
T2 construct: purchased Boehringer Mannheim (experimental preparation)
Description: as §1, §2, §3, §4, §5
A standard synthesis (Boehringer Mannheim immobilized penicillin G acylase, experimental preparation; enzyme dosing 12 U/ml) was carried out with no 2-thiopheneacetic acid added.
Same conditions as in Experiment A were employed, except that 2-thiopheneacetic acid was added to the reaction mixture at the beginning of the experiment in amounts as specified in Table 7.

[5] = target: T1, immobilized penicillin G acylase from E. coli; test: Enzymatic amoxicillin synthesis with immobilized Pen G acylase, Phox concentration varied (Example 1); assay type: biochemical; conditions: enzyme 8.6 U/ml
Description: as §1, §2, §4, §5

[6] = target: T3, agarose based penicillin G acylase immobilizate (Escherichia coli, UniProt P06875); test: Enzymatic amoxicillin synthesis with varying enzyme amounts and constant Phox (Example 4); assay type: biochemical; conditions: [Phox] 31 μM
T3 construct: processed alpha/beta heterodimer cut from one precursor (signal and spacer peptides removed)
Description: as §1, §2, §4, §5
An agarose based penicillin G acylase immobilizate was employed in the following experiments. The immobilizate which was kept in water was drained of excess water on a filter by applying suction for 1 min.

[7] = target: T1, immobilized penicillin G acylase from E. coli; test: Enzymatic amoxicillin synthesis with immobilized Pen G acylase, L-(+)-mandelic acid varied (Example 6); assay type: biochemical; conditions: enzyme 12.0 U/ml
Description: as §1, §2, §3, §4, §5
A standard synthesis (immobilized penicillin G acylase from E. coli; enzyme dosing 12.0 U/ml) was carried out with no L-(+)-mandelic acid added.
Same conditions as in Experiment A were employed, except that L-(+)-mandelic acid was added to the reaction mixture at the beginning of the experiment in amounts as specified in Table 6. A side product obtained was α-hydroxybenzylpenicillin.

[8] = Exp B, [Thiopheneacetic acid] 0.03 mM
[9] = Exp C, [Thiopheneacetic acid] 0.3 mM
[10] = Exp A, [Phox] 2.6 μM (residual, none added)
[11] = Exp B, [L-(+)-Mandelic acid] 0.64 mM
[12] = Exp C, [L-(+)-Mandelic acid] 3.3 mM
[13] = Exp D, [L-(+)-Mandelic acid] 6.7 mM
[14] = Exp E, [L-(+)-Mandelic acid] 13.3 mM
[15] = Exp F, [L-(+)-Mandelic acid] 14.2 mM
[16] = Exp G, [L-(+)-Mandelic acid] 36.1 mM

T3 sequence (P06875 290-846): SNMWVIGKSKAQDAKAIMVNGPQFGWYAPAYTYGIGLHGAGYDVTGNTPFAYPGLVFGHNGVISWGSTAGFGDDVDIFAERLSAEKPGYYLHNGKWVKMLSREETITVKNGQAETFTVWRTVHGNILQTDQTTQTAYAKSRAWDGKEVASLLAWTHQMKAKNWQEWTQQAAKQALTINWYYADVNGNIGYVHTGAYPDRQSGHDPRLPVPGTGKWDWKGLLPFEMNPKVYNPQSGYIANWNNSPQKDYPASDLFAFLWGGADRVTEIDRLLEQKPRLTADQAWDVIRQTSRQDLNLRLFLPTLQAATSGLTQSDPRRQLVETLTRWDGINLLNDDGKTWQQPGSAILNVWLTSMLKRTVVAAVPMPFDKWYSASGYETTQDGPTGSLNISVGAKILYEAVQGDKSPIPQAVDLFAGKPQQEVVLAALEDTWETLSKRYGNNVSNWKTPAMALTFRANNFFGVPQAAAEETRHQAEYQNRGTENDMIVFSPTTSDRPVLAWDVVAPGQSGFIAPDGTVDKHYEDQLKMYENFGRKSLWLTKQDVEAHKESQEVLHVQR
T3 sequence (P06875 27-235): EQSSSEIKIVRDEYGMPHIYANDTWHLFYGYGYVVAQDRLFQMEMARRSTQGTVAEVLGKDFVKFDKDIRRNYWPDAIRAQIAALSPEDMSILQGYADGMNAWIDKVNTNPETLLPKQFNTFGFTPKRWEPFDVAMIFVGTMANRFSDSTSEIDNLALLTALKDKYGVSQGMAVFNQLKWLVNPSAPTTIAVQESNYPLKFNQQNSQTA
T2 sequence (P06875 27-235): as above
T2 sequence (P06875 290-846): as the sequence (P06875 290-846) above
T1 sequence (P06875 27-235): as the sequence (P06875 27-235) above
T1 sequence (P06875 290-846): as the sequence (P06875 290-846) above

In the case of `O=C(O)Cc1ccccc1` [Phyl, phenylacetic acid], the “Initial velocity V0 (Amox)” value ([1]; Exp B, [Phyl] 32.9 μM) was 10.8 µmol/min/g, the “Initial velocity V0 (D-HPG)” value ([1]; Exp B, [Phyl] 32.9 μM) was 13.8 µmol/min/g and the Reaction stop time ([1]; Exp B, [Phyl] 32.9 μM) was 4.2 h. The “X at reaction stop time” value ([1]; Exp B, [Phyl] 32.9 μM) was 2.7, the “Initial velocity V0 (Amox)” value ([1]; Exp C, [Phyl] 63.3 μM) was 8.1 µmol/min/g and the “Initial velocity V0 (D-HPG)” value ([1]; Exp C, [Phyl] 63.3 μM) was 8.8 µmol/min/g. The Reaction stop time ([1]; Exp C, [Phyl] 63.3 μM) was 5.1 h, the “X at reaction stop time” value ([1]; Exp C, [Phyl] 63.3 μM) was 2.5 and the “Initial velocity V0 (Amox)” value ([1]; Exp D, [Phyl] 127 μM) was 5.2 µmol/min/g. For the same molecule, the “Initial velocity V0 (D-HPG)” value ([1]; Exp D, [Phyl] 127 μM) was 5.4 µmol/min/g, the Reaction stop time ([1]; Exp D, [Phyl] 127 μM) was 5.8 h and the “X at reaction stop time” value ([1]; Exp D, [Phyl] 127 μM) was 2.2.
For `O=[N+]([O-])c1ccc(O)c(CBr)c1` [2-Hydroxy-5-nitrobenzyl bromide], the “Concentration interval where improvement of ratio X is found” value [2] was 10 to 500 µM.
With `NC(=O)[C@H](N)c1ccccc1` [hydrochloride of D-phenylglycine amide, D-phenylglycine amide] the solubility [3] was “approximately 450 mM”.
In the case of `CC1(C)S[C@@H]2[C@H](NC(=O)Cc3ccccc3)C(=O)N2[C@H]1C(=O)O` [Penicillin G], the “Concentration interval where improvement of ratio X is found” value [2] was 2 to 1000 µM.
With `O=C(O)CSc1ccccc1` [(Phenylthio)acetic acid] the “Concentration interval where improvement of ratio X is found” value [2] was 2 to 1000 µM.
In the case of `CC1(C)S[C@@H]2[C@H](NC(=O)COc3ccccc3)C(=O)N2[C@H]1C(=O)O` [Penicillin V], the “Concentration interval where improvement of ratio X is found” value [2] was 2-1000 μm.
With `O=C(O)COc1ccc(O)cc1` [p-Hydroxyphenoxyacetic acid] the “Concentration interval where improvement of ratio X is found” value [2] was 2 to 500 µM.
For `O=S(=O)(F)Cc1ccccc1` [Phenylmethylsulfonyl fluoride], the “Concentration interval where improvement of ratio X is found” value [2] was 0.2 to 10 µM.
In the case of `O=C(O)Cc1cccs1` [Thiopheneacetic acid, 2-thiopheneacetic acid], the “Initial velocity V0 (Amox)” value [4, 8] was 1.68 µmol/min/mL, the “Initial velocity V0 (D-HPG)” value [4, 8] was 1.95 µmol/min/mL and the Reaction stop time [4, 8] was 2.3 h. The “X at reaction stop time” value [4, 8] was 2.7, the “Initial velocity V0 (Amox)” value [4, 9] was 0.15 µmol/min/mL and the “Initial velocity V0 (D-HPG)” value [4, 9] was 0.058 µmol/min/mL. The Reaction stop time [4, 9] was 12 h and the “X at reaction stop time” value [4, 9] was 1.6.
For `O=C(O)COc1ccccc1` [Phox, phenoxyacetic acid], the “Initial velocity V0 (Amox)” value [5, 10] was 17.7 µmol/min/g, the “Initial velocity V0 (D-HPG)” value [5, 10] was 25.0 µmol/min/g and the Reaction stop time [5, 10] was 2.1 h. For the same molecule, the “X at reaction stop time” value [5, 10] was 2.9, the “Initial velocity V0 (Amox)” value ([5]; Exp B, [Phox] 9.9 μM) was 13.1 µmol/min/g and the “Initial velocity V0 (D-HPG)” value ([5]; Exp B, [Phox] 9.9 μM) was 16.5 µmol/min/g. The Reaction stop time ([5]; Exp B, [Phox] 9.9 μM) was 3.3 h, the “X at reaction stop time” value ([5]; Exp B, [Phox] 9.9 μM) was 2.7 and the “Initial velocity V0 (Amox)” value ([5]; Exp C, [Phox] 16.8 μM) was 11.9 µmol/min/g. For the same molecule, the “Initial velocity V0 (D-HPG)” value ([5]; Exp C, [Phox] 16.8 μM) was 13.8 µmol/min/g, the Reaction stop time ([5]; Exp C, [Phox] 16.8 μM) was 4.1 h and the “X at reaction stop time” value ([5]; Exp C, [Phox] 16.8 μM) was 2.55. For the same molecule, the “Initial velocity V0 (Amox)” value ([5]; Exp D, [Phox] 31.0 μM) was 8.8 µmol/min/g, the “Initial velocity V0 (D-HPG)” value ([5]; Exp D, [Phox] 31.0 μM) was 8.8 µmol/min/g and the Reaction stop time ([5]; Exp D, [Phox] 31.0 μM) was 5.7 h. The “X at reaction stop time” value ([5]; Exp D, [Phox] 31.0 μM) was 2.35, the “Initial velocity V0 (Amox)” value ([5]; Exp E, [Phox] 61.7 μM) was 6.5 µmol/min/g and the “Initial velocity V0 (D-HPG)” value ([5]; Exp E, [Phox] 61.7 μM) was 5.4 µmol/min/g. For the same molecule, the Reaction stop time ([5]; Exp E, [Phox] 61.7 μM) was 9.5 h, the “Initial velocity V0 (Amox)” value ([6]; Exp A, enzyme dosage 11.9 U/ml) was 1.17 µmol/min/mL and the “X at stop time” value ([6]; Exp A, enzyme dosage 11.9 U/ml) was 1.75. For the same molecule, the “Initial velocity V0 (Amox)” value ([6]; Exp B, enzyme dosage 23.8 U/ml) was 2.97 µmol/min/mL, the “Initial velocity V0 (D-HPG)” value ([6]; Exp B, enzyme dosage 23.8 U/ml) was 1.85 µmol/min/mL and the “Initial velocity V0 (D-HPG)” value ([6]; Exp C, enzyme dosage 47.5 U/ml) was “ca. 5.6 μmoles/min/ml”. The “X at stop time” value ([6]; Exp C, enzyme dosage 47.5 U/ml) was “ca. 2.0”.
With `CC1(C)[C@H](C(=O)O)N2C(=O)[C@@H](NC(=O)Cc3ccccc3)[C@H]2[S+]1[O-]` (stereo partly drawn) [Penicillin G sulfoxide] the “Concentration interval where improvement of ratio X is found” value [2] was 2 to 500 µM.
For `O=C(O)[C@@H](O)c1ccccc1` [L-(+)-Mandelic acid, L-(+)-mandelic acid], the “Initial velocity V0 (Amox)” value [7, 11] was 156 nmoles/min/U, the “Initial velocity V0 (D-HPG)” value [7, 11] was 207 nmoles/min/U and the Reaction stop time [7, 11] was 2.4 h. For the same molecule, the “X at reaction stop time” value [7, 11] was 2.9, the “Initial velocity V0 (Amox)” value [7, 12] was 137 nmoles/min/U and the “Initial velocity V0 (D-HPG)” value [7, 12] was 174 nmoles/min/U. The Reaction stop time [7, 12] was 2.8 h, the “X at reaction stop time” value [7, 12] was 2.8 and the “Initial velocity V0 (Amox)” value [7, 13] was 119 nmoles/min/U. For the same molecule, the “Initial velocity V0 (D-HPG)” value [7, 13] was 146 nmoles/min/U, the Reaction stop time [7, 13] was 3.0 h and the “X at reaction stop time” value [7, 13] was 2.65. The “Initial velocity V0 (Amox)” value [7, 14] was 89 nmoles/min/U, the “Initial velocity V0 (D-HPG)” value [7, 14] was 110 nmoles/min/U and the Reaction stop time [7, 14] was 4.7 h. The “X at reaction stop time” value [7, 14] was 2.65, the “Initial velocity V0 (Amox)” value [7, 15] was 80 nmoles/min/U and the “Initial velocity V0 (D-HPG)” value [7, 15] was 106 nmoles/min/U. The Reaction stop time [7, 15] was 4.2 h, the “X at reaction stop time” value [7, 15] was 2.8 and the “Initial velocity V0 (Amox)” value [7, 16] was 49 nmoles/min/U. The “Initial velocity V0 (D-HPG)” value [7, 16] was 68 nmoles/min/U, the Reaction stop time [7, 16] was 5.5 h and the “X at reaction stop time” value [7, 16] was 2.8. The “optimal concentration with respect to minimization of the ratio X” value ([7]; under the conditions chosen) was 3.3 to 14.2 mM.
